# Assays:
# [1] = test system: HUVEC-12 endothelial cells; assay: Migration of HUVEC-12 endothelial cells (scratch test); format: cell-based, Human; details: direct treatment of HUVEC-12, 24 h; compounds 10 μM, VEGF165 10 ng/mL; vs control medium
# Description: (§1) The experiment included seven groups. In Group 1, HUVEC-12 endothelial cells (purchased from Shanghai RongChuang Biotech Co., Ltd.) were treated directly with simple DMEM medium (Gibcol, Shanghai) containing 10% FBS (SERANA, Germany) (control). In Group 2, the endothelial cells were treated with the supernatant obtained 24 h after macrophages were cultured with DMEM medium containing 10% FBS (s-control). In Group 3, the endothelial cells cultured with DMEM medium containing 10% FBS were treated directly with TG-028 (TG-028, 10 μM). In Group 4, the endothelial cells were treated with the supernatant obtained after macrophages cultured with DMEM medium containing 10% FBS were treated and co-incubated with TG-028 for 24 h (s-TG-028, […]). In Group 5, the endothelial cells cultured with DMEM medium containing 10% FBS were treated directly with Cpd-18 (Salvianolate) (cpd-18, 10 μM). In Group 6, the endothelial cells were treated with the supernatant obtained after macrophages cultured with DMEM medium containing 10% FBS were treated and co-incubated with Cpd-18 (Salvianolate, 10 μM) for 24 h (s-cpd18). In Group 7, the endothelial cells cultured with DMEM medium containing 10% FBS were treated directly with VEGFD (Recombinant Human VEGF165, 10 ng/mL).
# Human umbilical vein endothelial cells HUVEC-12 in logarithmic growth phase were counted, adjusted to a cell density of 5×10^5 cells/mL, and inoculated in 1 mL per well in a 6-well plate. The cells were conventionally cultured in an incubator to form monolayer cells of 90% confluency. The 6-well plate fully plated with cells was scratched perpendicular to the cell surface with a 200 μL pipette tip from one end to the other end of the well. The scratches were made transversely with the pipette tip being as perpendicular as possible to the bottom of the plate. […]
# The medium was aspirated and the cells scratched off were washed off with PBS. […] The migration of endothelial cells was detected according to the cell scratch method and the relative migration rate was calculated. […]
# [2] = test system: HUVEC-12 endothelial cells; assay: Tubule formation of HUVEC-12 endothelial cells (Matrigel); format: cell-based, Human; details: direct treatment of HUVEC-12, 3 h; compounds 10 μM, VEGF165 10 ng/mL; vs control medium
# Description: as §1
# A 96-well plate and sterile yellow pipette tip were stored overnight in a refrigerator at −20° C. The packed Matrigel was thawed overnight in a refrigerator at 4° C. before the experiment. On the following day, the Matrigel thawed was centrifuged for a few minutes. 60 μL per well of the pre-cooled Matrigel was added to a 96-well plate in an ice bath on a ultra-clean bench, and then allowed to stand in an incubator for 1 h. After Matrigel was solidified, HUVEC-12 cells in logarithmic growth phase were taken and adjusted for the cell density. The cells were well mixed with each group of medium at a density of 5×10^4 cells/well and inoculated into a 96-well plate. […] The tube-like structure was analyzed by ImageJ image-analysis software, and the tube formation ability was evaluated using number of master junction as a quantitative index.
# [3] = test system: rats with middle cerebral artery occlusion (MCAO); assay: Acute cerebral infarction model in rats with middle cerebral artery occlusion (MCAO); format: in vivo, male SD rats; details: MCAO, after 3 days, FIGS. 11-13
# Excerpt: After obtaining the active molecules that can promote the expression of VEGF-A mRNA in the animal model of inflammatory angiogenesis, a rat model of cerebral infarction was used for further verification. Following the method as described in Longa, E. Z., Longa, E. Z., Weinstein, P. R., Carlson, S. & Commin, R. Reversible middle cerebral artery occlusion without craniectomy in rats. [J]. Stroke, 1989. 1: 84-91, an acute cerebral infarction model was established in rats with middle cerebral artery occlusion (MCAO); and following the method as described in C. dela Torre, T. Fortin, G. A. S. Park, K. S. Butler, P. Kozlowski, B. A. Pappas, H. de Socarraz, J. K. Saunders and M. T. Richard. [J]. Brain Research, 1992. 582:186-195, a chronic cerebral ischemia model was established in rats with permanent ligation of bilateral common carotid arteries (2VO). The inhibition on cerebral infarction and neuroprotection for brain injury of the active molecules screened in Effect Example 2 were verified.
# The control drugs were: Edaravone (purchased from Zhejiang Shengtong Biotechnology Co., Ltd.), Clopidogrel bisulfate (purchased from Wuhan Yuancheng Gongchuang Technology Co., Ltd.), and Salvianolate (purchased from Henan Provincial People's Hospital). Clopidogrel bisulfate is a platelet aggregation inhibitor, and Edaravone is a brain protectant (free radical scavenger). The MCAO model of rats was made by the thread occlusion method. The rats used in this effect example were male SD rats weighing 280-320 grams, purchased from Shanghai SLAC Laboratory Animal Co., Ltd. Five SD (Sprague Dawley) rats in each group were administered by intraperitoneal injection, 2 h before surgery, and every 24 h after modeling.
# Three days later, the brain was taken, and the rat brain was stained with TTC (2,3,5-triphenyltetrazolium chloride, to detect the cell viability) and then photographed. Infarction rate (%)=(Non-infarction area of right brain section−non-infarction area of left brain section)/total area of brain section*100%. According to t tests, *P<0.05, **P<0.01, ***P<0.001 compared with the model group (MCAO). Infarction inhibition rate (%) at different doses=(infarction rate of model group-infarction rate of treatment group)/infarction rate of model group*100%. The infarction inhibition rate at different doses was plotted, and the ED50 of the drug was calculated.
# Moreover, the body weight of the rats was recorded. The rate of body weight change was calculated according to a formula: Rate of body weight change (%)=(final weight-initial weight)/[…].
# Three days after the acute cerebral infarction model was established in rats with MCAO, the test rats were scored for neurological function according to the Longa nerve scoring standard.
# Three days after the acute cerebral infarction model of MCAO was established in rats, the intact brain tissue was taken out, olfactory bulb and the brain tissue that is 4 mm in front of the frontal pole was removed, and the immediately adjacent brain tissue of 2 mm thick was taken for water content measurement in the brain. The water content in brain tissue is calculated by the formula: (WW−DW)/WW×100%, where WW is the wet weight and DW is the dry weight. Three days after the acute cerebral infarction model of MCAO was established in rats, the brain tissue was stained with Evans Blue (EB, a commonly used azo dye preparation) to evaluate the permeability across the blood-brain barrier (BBB), so as to evaluate the integrity of blood-brain barrier. Both experiments were tested with the optimal dose of each drug previously determined: TG-028 (5 mg/Kg), Salvianolate (20 mg/Kg), Clopidogrel bisulfate (40 mg/Kg), Edaravone (40 mg/Kg).
substance,measurement,setting,value
VEGF,effect on migration of endothelial cells (in words),[1],significant effect on the migration of endothelial cells
same,effect on tube formation of endothelial cells (in words),[2],significant effect on the tube formation of endothelial cells
same,inhibitory effect on cerebral infarction (in words),[3],can inhibit cerebral infarction in rats
